Results taken from ChEMBL document CHEMBL1201862, “PubChem BioAssay data set” (2004).
Activity calls are given as the source filed them.

Key:
[1] = Trypanosoma cruzi growth suppression in host cells – NIH3T3 host cells, beta-gal luminescence, confirmation (AID 2044); assay type: functional, cell-based;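 further: intracellular parasites grown in NIH/3T3 mouse fibroblasts as host cells; luminescent beta-galactosidase reporter signal from transgenic T. cruzi replicating inside host cells; inhibitors lower the luminescence signal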
[2] = NIH3T3 cell viability loss – ATP luminescence, mouse fibroblasts, counter-screen, dose response (AID 2010); assay type: functional, cell-based;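 further: cells exposed to compound for about 90 hours before reading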
[3] = biological target: Cytochrome P450 2C9 (Homo sapiens, UniProt P11712)
Chain of Cytochrome P450 2C9 (P11712 whole entry): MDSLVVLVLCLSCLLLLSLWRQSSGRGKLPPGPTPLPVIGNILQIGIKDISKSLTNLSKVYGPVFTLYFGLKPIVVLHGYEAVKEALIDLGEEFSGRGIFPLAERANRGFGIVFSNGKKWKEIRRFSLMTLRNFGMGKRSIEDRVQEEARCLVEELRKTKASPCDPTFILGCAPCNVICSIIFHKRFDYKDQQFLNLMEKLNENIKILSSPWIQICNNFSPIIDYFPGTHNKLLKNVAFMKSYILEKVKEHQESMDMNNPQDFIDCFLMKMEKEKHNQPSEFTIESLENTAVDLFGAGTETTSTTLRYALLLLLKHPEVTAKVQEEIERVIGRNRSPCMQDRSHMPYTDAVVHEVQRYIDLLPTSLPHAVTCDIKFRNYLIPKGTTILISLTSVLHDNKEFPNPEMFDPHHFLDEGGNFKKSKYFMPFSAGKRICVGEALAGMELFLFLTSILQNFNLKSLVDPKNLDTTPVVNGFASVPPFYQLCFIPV

[4] = biological target: Cytochrome P450 3A4 (Homo sapiens, UniProt P08684);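 further: CYP3A4 tested as one member of a cytochrome P450 panel screen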
Chain of Cytochrome P450 3A4 (P08684 whole entry): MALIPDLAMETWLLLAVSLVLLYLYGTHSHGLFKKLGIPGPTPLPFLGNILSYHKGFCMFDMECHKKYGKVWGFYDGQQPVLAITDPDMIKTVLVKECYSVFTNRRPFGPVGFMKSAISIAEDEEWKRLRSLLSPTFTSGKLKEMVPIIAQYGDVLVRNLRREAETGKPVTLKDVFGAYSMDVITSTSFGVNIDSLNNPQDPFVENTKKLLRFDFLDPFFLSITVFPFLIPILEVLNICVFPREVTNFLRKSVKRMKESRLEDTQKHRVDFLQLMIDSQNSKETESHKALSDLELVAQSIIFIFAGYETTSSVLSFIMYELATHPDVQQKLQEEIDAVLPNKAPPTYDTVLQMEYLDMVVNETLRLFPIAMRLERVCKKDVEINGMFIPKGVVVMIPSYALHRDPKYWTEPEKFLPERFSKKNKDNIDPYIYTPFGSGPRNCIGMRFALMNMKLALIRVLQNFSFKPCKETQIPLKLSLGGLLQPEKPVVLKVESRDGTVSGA

[5] = biological target: Cytochrome P450 2C19 (Homo sapiens, UniProt P33261); assay: Cytochrome panel assay with activity outcomes. Panel member name: p450-cyp2c19 Compounds with AC50 equal or less than 10 uM are considered active; assay type: functional
Chain of Cytochrome P450 2C19 (P33261 whole entry): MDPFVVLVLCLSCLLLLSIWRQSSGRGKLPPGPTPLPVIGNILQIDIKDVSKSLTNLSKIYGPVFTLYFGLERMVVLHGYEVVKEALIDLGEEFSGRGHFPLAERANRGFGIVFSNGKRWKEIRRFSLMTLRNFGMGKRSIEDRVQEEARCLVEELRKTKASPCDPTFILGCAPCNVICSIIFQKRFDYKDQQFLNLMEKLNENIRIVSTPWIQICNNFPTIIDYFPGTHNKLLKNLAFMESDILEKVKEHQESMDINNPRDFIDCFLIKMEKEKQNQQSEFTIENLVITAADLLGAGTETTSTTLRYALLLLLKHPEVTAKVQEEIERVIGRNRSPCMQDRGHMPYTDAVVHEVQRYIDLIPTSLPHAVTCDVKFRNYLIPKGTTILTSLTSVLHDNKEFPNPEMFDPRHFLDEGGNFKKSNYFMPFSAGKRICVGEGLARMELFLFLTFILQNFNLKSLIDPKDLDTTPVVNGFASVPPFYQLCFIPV

[6] = NIH-3T3 fibroblast cytotoxicity, dose response, cytotoxicity control, cell-based, fluorescence, Alamar Blue, secondary assay (AID 2327); assay type: functional;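 further: NIH-3T3 mouse fibroblasts cultured with fluconazole at 8 µg/mL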
[7] = fluconazole-exposed Candida albicans growth modulators – fluorescence, retest, confirmation (AID 2467); assay type: functional, cell-based
[8] = biological target: T1, Cytochrome P450 1A2 (Homo sapiens, UniProt P05177);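 further: PubChem cytochrome P450 panel assay, CYP1A2 panel member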
T1 sequence (P05177 whole entry): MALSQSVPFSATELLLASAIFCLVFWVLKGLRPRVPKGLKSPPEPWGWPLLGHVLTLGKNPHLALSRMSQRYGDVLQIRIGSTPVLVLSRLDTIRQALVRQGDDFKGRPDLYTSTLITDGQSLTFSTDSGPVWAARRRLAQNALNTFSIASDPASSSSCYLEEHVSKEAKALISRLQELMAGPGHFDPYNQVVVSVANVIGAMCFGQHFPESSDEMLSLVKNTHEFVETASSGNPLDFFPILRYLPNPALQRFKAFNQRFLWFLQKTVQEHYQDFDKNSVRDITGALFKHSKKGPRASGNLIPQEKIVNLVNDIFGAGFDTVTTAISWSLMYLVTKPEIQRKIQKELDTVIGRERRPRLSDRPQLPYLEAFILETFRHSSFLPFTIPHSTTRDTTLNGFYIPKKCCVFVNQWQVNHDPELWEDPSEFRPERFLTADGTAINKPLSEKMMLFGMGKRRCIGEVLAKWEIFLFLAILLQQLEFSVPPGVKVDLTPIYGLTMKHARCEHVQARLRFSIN

[9] = biological target: T2, Corticotropin-releasing factor receptor 2/Corticotropin-releasing factor-binding protein (Homo sapiens, UniProt P24387+Q13324); assay: activators of CRF receptor 2 with binding protein – uHTS hits, confirmation (AID 602473); assay type: functional; conditions: read-out: EC50_Mean
T2 sequence (Q13324 whole entry): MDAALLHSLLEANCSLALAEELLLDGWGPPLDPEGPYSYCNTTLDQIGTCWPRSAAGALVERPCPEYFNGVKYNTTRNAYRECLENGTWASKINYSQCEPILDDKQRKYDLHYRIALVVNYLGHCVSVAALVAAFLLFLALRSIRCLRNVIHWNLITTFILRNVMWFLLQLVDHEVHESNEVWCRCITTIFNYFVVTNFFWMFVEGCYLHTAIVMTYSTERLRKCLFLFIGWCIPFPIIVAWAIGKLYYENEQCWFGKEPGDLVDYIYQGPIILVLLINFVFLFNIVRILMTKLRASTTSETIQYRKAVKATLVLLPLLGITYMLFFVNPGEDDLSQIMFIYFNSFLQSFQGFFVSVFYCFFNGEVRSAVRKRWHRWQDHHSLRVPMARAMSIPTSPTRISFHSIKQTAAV
T2 sequence (P24387 whole entry): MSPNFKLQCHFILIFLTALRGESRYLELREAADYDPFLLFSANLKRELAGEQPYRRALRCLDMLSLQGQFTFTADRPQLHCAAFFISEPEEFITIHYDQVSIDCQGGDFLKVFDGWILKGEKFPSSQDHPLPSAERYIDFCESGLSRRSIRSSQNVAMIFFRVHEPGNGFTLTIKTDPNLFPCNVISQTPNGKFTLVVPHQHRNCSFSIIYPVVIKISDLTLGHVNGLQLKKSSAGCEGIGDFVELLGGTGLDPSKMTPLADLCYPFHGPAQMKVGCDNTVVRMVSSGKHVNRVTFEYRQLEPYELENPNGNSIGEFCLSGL

COC(=O)c1[nH]c2ccccc2c1NC(=O)CN1CCCc2ccccc21
EC50 [1]: 0.89 µM (active) | EC50 [2]: > 60 µM (not active)

CC(C)CN(C(=O)c1cc([N+](=O)[O-])cc([N+](=O)[O-])c1)C1CCS(=O)(=O)C1 (centres undefined)
EC50 [1]: 1.31 µM (active) | EC50 [2]: > 30 µM (not active)

CC(C)(Oc1ccc([C@@H]2CC2(Cl)Cl)cc1)C(=O)O
AC50 [3]: 31.6 µM (inconclusive)

Cc1c(C(=O)Nc2cccc(Cl)c2)c2ccccn2c1CCc1ccncc1
EC50 [1]: 1.19 µM (active) | EC50 [2]: > 30 µM (not active)

COc1ccc(CN2CCN(Cc3nc4ccccc4s3)CC2CCO)c(C)c1C (centres undefined)
EC50 [1]: 0.132 µM (active) | EC50 [2]: > 60 µM (inconclusive)

Cc1ccc(S(=O)(=O)n2ccc(-c3cccc(OCc4c(F)cccc4Cl)c3)n2)cc1
AC50 [4]: 7.94 µM (inconclusive)

Cc1nn(Cc2ccc(Cl)cc2)c(C)c1NC(=O)CCCn1nc([N+](=O)[O-])c(Cl)c1C
EC50 [1]: 0.318 µM (active) | EC50 [2]: > 30 µM (not active)

Cc1cccc(OCC(=O)N2CCC(N3CCCCCC3)CC2)c1
AC50 ([5]; read-out: AC50): 39.8 µM (inconclusive)

O=C(CSc1nc(=O)n2ccccc2n1)N1N=C(c2cccs2)CC1c1ccc(F)cc1 (centres undefined)
EC50 [1]: 1.51 µM (active) | EC50 [2]: > 60 µM (not active)

COCC(=O)N1CCC2(CC1)CCN(c1cccc(-c3ccccc3)c1)CC2
AC50 ([5]; read-out: AC50): 39.8 µM (inconclusive)

C/C(O)=C(/C#N)C(=O)Nc1cc(Br)ccc1Br
AC50 [4]: 15.8 µM (inconclusive)

COCCCn1c(SCc2ccccc2)nc2cc(OC)c(OC)cc2c1=N
EC50 [1]: 1.69 µM (active) | EC50 [2]: 11.5 µM (active)

CN1CCN(S(=O)(=O)c2ccc3ncc(C(=O)O)c(O)c3c2)CC1
AC50 ([5]; read-out: AC50): 22.4 µM (inconclusive)

COC(=O)c1cc2c(ccn2-c2ccc(F)cc2)n1Cc1ccc(OC(C)=O)cc1
EC50 [1]: 2.84 µM (active) | EC50 [2]: > 60 µM (not active)

O=C(Nc1ccncc1)Nc1cc(Cl)ccc1Cl
EC50 [1]: 0.469 µM (active) | EC50 [2]: > 30 µM (not active)

CCc1ccc(-n2nnnc2SCC(=O)Nc2ccc(NC(C)=O)cc2)cc1
EC50 [1]: 2.19 µM (active) | EC50 [2]: > 60 µM (not active)

Cc1cccc2cc(CN(Cc3cccnc3)C(=O)c3ccccc3F)c(Cl)nc12
EC50 [1]: 0.204 µM (active) | EC50 [2]: > 60 µM (not active)

Brc1ccc(CSc2nnc(-c3cnccn3)n2Cc2ccco2)cc1
EC50 [6]: > 160 µM (inconclusive) | EC50 [7]: 1.58 µM (active)

COc1cccc(CN(C(=O)c2cc3ccccc3oc2=O)C2CC2)c1
EC50 [6]: 18.6 µM (inconclusive) | EC50 [7]: > 38 µM (not active)

COc1ccc(OC)c(CN2CCN(C(=O)CCNC(=O)c3ccc(Br)cc3)CC2)c1
EC50 [1]: 0.563 µM (active) | EC50 [2]: > 60 µM (not active)

Cc1cc(C(=O)N[C@@H](c2ccccc2)[C@]2(C)C[C@H]2[C@@H](C)C(=O)Nc2ccc3ccccc3c2)n(C)n1
AC50 [8]: 12.6 µM (inconclusive)

Cc1ccc(COc2coc(CO)cc2=O)cc1
AC50 [8]: 15.8 µM (inconclusive)

Cc1cccc(C)c1NC(=S)NC(=O)CCc1ccccc1
AC50 [8]: 22.4 µM (inconclusive) | AC50 [3]: 25.1 µM (inconclusive)

CC(=O)NC(NC(C)=O)c1ccc(Br)cc1
AC50 [8]: 10 µM (inconclusive)

CC(C)CN1CC[C@@]2(CCCN(C(=O)c3csnn3)C2)C1
AC50 [4]: 20 µM (inconclusive)

COc1ccc(-n2c(=O)c(-c3cccs3)nc3cnc(Nc4ccccc4)nc32)cc1
AC50 [8]: 31.6 µM (inconclusive)

Cc1cc(Cl)ccc1OC(C)C(=O)Nc1ccccc1N1CCOCC1 (centres undefined)
EC50 [9]: 6 µM (active)

CCCCNC(=O)c1cn(C)c2ccc(S(=O)(=O)N3CCCC3)cc2c1=O
EC50 [6]: > 150 µM (inactive)

CCCC[C@H]1C[C@@H]1[C@@H]1N(P(=O)(c2ccccc2)c2ccccc2)[C@](CO)(c2ccccc2)CC12CC2
AC50 ([5]; read-out: AC50): 7.94 µM (inconclusive)

Cc1ccccc1CN1C2=NCCN2C(=O)C2=C1CCN(Cc1ccccc1)C2
AC50 [4]: 3.98 µM (inconclusive)

CCC(=O)Nc1cccc(NC(=O)c2cccc([N+](=O)[O-])c2)c1
AC50 [3]: 17.8 µM (inconclusive) | AC50 [5]: inconclusive

Cc1ccc(C)c(S(=O)(=O)NC(CC(C)C)C(=O)O)c1 (centres undefined)
AC50 ([5]; read-out: AC50): 39.8 µM (inconclusive)

O=C(C1=C[C@@H](c2csc3ccccc23)C[C@@H](OCc2ccc(CO)cc2)O1)N1CCN(Cc2ccccc2)CC1
EC50 [1]: 0.888 µM (active) | EC50 [2]: > 60 µM (not active)

Cc1ccc(S(=O)(=O)c2nc(NCc3ccc4c(c3)OCO4)sc2Cl)cc1
EC50 [1]: 0.39 µM (active) | EC50 [2]: > 60 µM (not active)

Cc1ccc2c3ncn(Cc4ccco4)c(O)c-3nc2c1
EC50 [9]: > 53 µM (inactive)

CC1=CC(=C(C#N)c2nc3ccccc3s2)C=C(C)N1c1ccc(F)cc1F
EC50 [9]: 10.2 µM (active)

Cc1ccc(C(=O)N2CCN(c3cc(O)nnc3-c3ccccc3)CC2)cc1
AC50 [3]: 31.6 µM (inconclusive)

Cc1cccc2c1Oc1ccccc1[C@@H]2NC(=O)c1ccc([N+](=O)[O-])cc1
AC50 [3]: 7.94 µM (inconclusive)

COCCn1c(=O)c(-c2cccc(C#N)c2)nc2cnc(Oc3ccccc3)nc21
AC50 ([5]; read-out: AC50): 39.8 µM (inconclusive)

O=C(/C=C\c1ccc(-c2cccc([N+](=O)[O-])c2)o1)N1CCOCC1
EC50 [6]: > 150 µM (inactive) | EC50 [7]: > 38 µM (not active)

CC[N+](CC)(CC)CCOc1ccc(/C=C\c2ccccc2)cc1
AC50 [8]: 31.6 µM (inconclusive)

Cc1onc(-c2ccccc2)c1CNC(=O)Nc1ccc(C(F)(F)F)cc1
EC50 [1]: 4.33 µM (active) | EC50 [2]: > 60 µM (not active)

O=[N+]([O-])c1ccc2[nH]c(-[n+]3c(-c4ccccc4)cc(-c4ccccc4)cc3-c3ccccc3)nc2c1
EC50 [1]: 1.18 µM (active) | EC50 [2]: > 60 µM (not active)

COc1ccccc1CN1CCCC2(CCN(C(=O)Oc3ccccc3)CC2)C1
AC50 [4]: 15.8 µM (inconclusive)

Cc1ccc(C(=O)CC(=O)c2ccc(C(C)(C)C)cc2)cc1
EC50 [6]: > 160 µM (inactive) | EC50 [7]: > 38 µM (not active)

O=C(c1ccc2c(=O)n(Cc3ccco3)c(=S)[nH]c2c1)N1CCN(c2ccccc2)CC1
AC50 [8]: 3.16 µM (inconclusive) | AC50 [3]: 25.1 µM (inconclusive)

CC(CCc1ccccc1)NC(=O)C(=O)NCCO (centres undefined)
AC50 [3]: 0.794 µM (inconclusive)

O=C(Nc1cccc(C(F)(F)F)c1)c1cccnc1
EC50 [6]: > 160 µM (inactive) | EC50 [7]: 4.39 µM (active)

COc1ccccc1N(CC(=O)NCC1CCCO1)C(=O)CNS(=O)(=O)c1ccc(C)cc1 (centres undefined)
AC50 [3]: 31.6 µM (inconclusive) | AC50 ([5]; read-out: AC50): 35.5 µM (inconclusive)

CC1CCN(CCOc2cc(Cl)ccc2Cl)CC1
AC50 [3]: 0.891 µM (inconclusive)

O=C(COC(=O)c1cnccn1)NCc1ccccc1
AC50 [3]: 12.6 µM (inconclusive) | AC50 ([5]; read-out: AC50): 39.8 µM (inconclusive)

CC(C)CNS(=O)(=O)c1cc(C(=O)N2CC(C)OC(C)C2)c(Cl)cc1Cl (centres undefined)
AC50 [3]: 25.1 µM (inconclusive) | AC50 ([5]; read-out: AC50): 25.1 µM (inconclusive)

Cc1c(Nc2scc(-c3ccccc3)[n+]2-c2ccccc2)c(=O)n(-c2ccccc2)n1C
EC50 [6]: 18 µM (active) | EC50 [7]: 0.111 µM (active)

C=CCc1cccc(/C=N/NC(=O)c2ccccc2Br)c1O
EC50 [1]: 1.72 µM (active) | EC50 [2]: 8.77 µM (active)

NC(=S)N/N=C/c1ccc(-n2nncc2-c2ccc(Cl)cc2)cc1
EC50 [1]: 1.64 µM (active) | EC50 [2]: > 60 µM (not active)

COc1ccccc1C(=O)O/N=C1/CCCc2c1ccc(OC)c2[N+](=O)[O-]
AC50 [4]: 22.4 µM (inconclusive)

O=C1NCCc2c1[nH]c1ccccc21
AC50 ([5]; read-out: AC50): 15.8 µM (inconclusive)

OCC[n+]1ccc(/C=C/c2c[nH]c3ccccc23)cc1
EC50 [9]: 8.55 µM (active)

N=C(N)NCc1cccc(I)c1 [IOBENGUANE]
AC50 [8]: 12.6 µM (inconclusive)
